Source: patent US20190225650A1, “PEPTIDOMIMETIC MACROCYCLES AND USE THEREOF IN REGULATING HIF1ALPHA” (AILERON THERAPEUTICS, INC., priority 2013, published 2019)
Bridge positions count the residues as written; N and C are the ends. Square brackets hold non-standard residues; d marks the D form. Peptide text beside a SMILES is read from it. R8 = C=CCCCCCC[C@@](C)(N)C(=O)O; S5 = C=CCCC[C@](C)(N)C(=O)O; Nle = CCCC[C@H](N)C(=O)O

Legend:
HRE-bla ME-180 cells [1] = test: Cell proliferation assay (viability, MTT, 1% FBS); format: cell-based, human
How it was run: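 ME-180 cells (2×10^4/well) in Opti-MEM with 1% FBS were pretreated 16 h under normoxia (21% O2), vehicle 0.5% DMSO final. Incubation then continued under normoxia or hypoxia (1% O2); viable cells quantified by MTT-type CellTiter 96 assay.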

HRE-bla ME-180 cells [2] = test: Reporter gene assay (HRE-bla ME-180 HIF reporter, GeneBLAzer); format: cell-based, human; details: for EC50: 24 hour normoxia
How it was run: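 A FRET β-lactamase readout of HIF transcription was used. After compound treatment in 0.3% DMSO/media under normoxic conditions, 20 μl of 6× LiveBLAzer-FRET B/G (CCF4-AM) substrate was added. Plates sat 3 hr at room temperature in the dark and were read at 409 Ex/460Em and 409Ex/530Em on a Synergy 2. Inhibition was compared against DMSO vehicle controls, with chetomin as positive control.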

[3] = biological target: T1, flag-tagged HIF1α (AA 786-826) / His6-tagged p300 (AA 323-423) complex (Homo sapiens, UniProt Q09472); test: HIF1α p300 displacement assay (TR FRET, +CHAPS); format: binding; details: read-out: IC50 (nM) (HIF1α_p300 Displacement + CHAPS)
T1 construct: His6-tagged p300 (AA 323-423); made in house; host or cells: E. coli (pETDuet vector)
How it was run: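 The co-expressed flag-HIF1α (786-826)/His6-p300 (323-423) complex, purified from E. coli with 0.1 mM ZnSO4, was used at 300 nM final with competitor peptides for 1 h at room temperature. Buffer was 150 mM NaCl, 20 mM HEPES pH 7.4, 7.5 mM CHAPS and 1 mM DTT. Anti-Flag-K (0.5 μM) and anti-His-D2 (4 nM) were then added for 2 h, and IC50s were fitted from the TR-FRET ratio.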

| SMILES | Viability 1% FBS AVG (MTT V3-24 hr Normoxia) (μM) (HRE-bla ME-180 cells [1]) | 18 h Avg % max inhibition at top conc (HIF Rptr-24 hrs normoxia) (μM) (HRE-bla ME-180 cells [2]) | EC50 (HRE-bla ME-180 cells [2]) [µM] | IC50 [3] [nM] |
| --- | --- | --- | --- | --- |
| CCCC[C@H](NC(=O)[C@H](CCC(=O)O)NC(=O)[C@@H](NC(=O)[C@@H](NC(=O)[C@H](CC(C)C)NC(=O)[C@]1(C)CCCC=CCCC[C@](C)(NC(=O)[C@H](CCC(=O)O)NC(=O)[C@H](CC(=O)O)NC(=O)[C@@H](NC(=O)[C@H](Cc2ccccc2)NC(C)=O)[C@@H](C)CC)C(=O)N[C@@H](C(C)C)C(=O)N[C@@H](CC(C)C)C(=O)N[C@@H](CCCC)C(=O)N1)C(C)C)[C@@H](C)CC)C(=O)N[C@@H](C)C(=O)N[C@@H](CC(C)C)C(=O)N[C@@H](CC(=O)O)C(=O)N[C@@H](CCCNC(=N)N)C(=O)N[C@H](C(N)=O)[C@@H](C)CC [SP-109] (Ac-FIDE[S5]VL[Nle][S5]LVIE[Nle]ALDRI-NH2; staple 5-9) | ++ (≤5 but <15: ++) | + (<10: +) | > 30 | 200 to 400 |
| CCCC[C@H](NC(=O)[C@H](Cc1ccccc1)NC(=O)[C@@H](NC(=O)[C@H](CCC(=O)O)NC(=O)[C@H](CCC(N)=O)NC(=O)[C@H](CC(=O)O)NC(=O)[C@@H](NC(=O)[C@H](Cc1ccccc1)NC(C)=O)[C@@H](C)CC)C(C)C)C(=O)N[C@@]1(C)CCCC=CCCC[C@@](C)(C(=O)N[C@@H](CCCC)C(=O)N[C@@H](C)C(=O)N[C@@H](CC(C)C)C(=O)N[C@@H](CC(=O)O)C(=O)N[C@@H](CCCNC(=N)N)C(=O)N[C@H](C(N)=O)[C@@H](C)CC)NC(=O)[C@H]([C@@H](C)CC)NC(=O)[C@H](C(C)C)NC(=O)[C@H](CC(C)C)NC1=O [SP-269] (Ac-FIDQEVF[Nle][S5]LVI[S5][Nle]ALDRI-NH2; staple 9-13) | ++++ (≥30: ++++) | +++ (≤25 but <50: +++) | 15 to 30 | 400 to 700 |
| CCCC[C@H](NC(=O)[C@H](CCC(=O)O)NC(=O)[C@@H](NC(=O)[C@@H](NC(=O)[C@H](CC(C)C)NC(=O)[C@]1(C)CCCC=CCCC[C@](C)(NC(=O)[C@H](CCC(=O)O)NC(=O)[C@H](CCCNC(=N)N)NC(=O)[C@@H](NC(=O)[C@H](Cc2ccccc2)NC(C)=O)[C@@H](C)CC)C(=O)N[C@@H](C(C)C)C(=O)N[C@@H](CC(C)C)C(=O)N[C@@H](CCCC)C(=O)N1)C(C)C)[C@@H](C)CC)C(=O)N[C@@H](C)C(=O)N[C@@H](CC(C)C)C(N)=O [SP-155] (Ac-FIRE[S5]VL[Nle][S5]LVIE[Nle]AL-NH2; staple 5-9) | ++++ (≥30: ++++) | ++ (≤10 but <25: ++) | > 30 | > 700 |
| CCCC[C@H](NC(=O)[C@]1(C)CCCC=CCCCCCC[C@@](C)(NC(=O)[C@H](CCC(=O)O)NC(=O)[C@H](CCC(=O)O)NC(=O)[C@H](CC(=O)O)NC(=O)[C@@H](NC(=O)[C@H](CC(N)=O)NC(=O)[C@@H](NC(=O)[C@H](CCC(N)=O)NC(=O)[C@H](CC(=O)O)NC(=O)[C@H](CC(C)C)NC(=O)[C@H](C)NC(=O)[C@H](CCCNC(=N)N)NC(=O)[C@H](CC(C)C)NC(=O)[C@H](CC(C)C)NC(=O)[C@H](CCC(=O)O)NC(=O)[C@H](CCC(=O)O)NC(=O)CNC(=O)[C@H](CCC(N)=O)NC(=O)[C@H](CC(C)C)NC(=O)[C@H](CC(C)C)NC(C)=O)C(C)C)[C@@H](C)CC)C(=O)N[C@@H](CC(C)C)C(=O)N[C@@H](CCCC)C(=O)N[C@@H](CO)C(=O)N[C@@H](CC(C)C)C(=O)N[C@@H](C(C)C)C(=O)N[C@@H]([C@@H](C)CC)C(=O)N1)C(N)=O [SP-337] (Ac-LLQGEELLRALDQVNIDEE[R8]L[Nle]SLVI[S5][Nle]-NH2; staple 20-27) | ++++ (≥30: ++++) | + (<10: +) | > 30 | 400 to 700 |
| CCCC[C@H](NC(=O)[C@H](CCC(=O)O)NC(=O)[C@@H](NC(=O)[C@@H](NC(=O)[C@H](CC(C)C)NC(=O)[C@]1(C)CCCC=CCCC[C@](C)(NC(=O)[C@H](CCC(=O)O)NC(=O)[C@H](CC(=O)O)NC(=O)[C@@H](NC(=O)[C@H](CC(N)=O)NC(=O)[C@@H](NC(=O)[C@H](CCC(N)=O)NC(=O)[C@H](CC(=O)O)NC(=O)[C@H](CC(C)C)NC(=O)[C@H](C)NC(=O)[C@H](CCCNC(=N)N)NC(=O)[C@H](CC(C)C)NC(=O)[C@H](CC(C)C)NC(=O)[C@H](CCC(=O)O)NC(=O)[C@H](CCC(=O)O)NC(=O)CNC(=O)[C@H](CCC(N)=O)NC(=O)[C@H](CC(C)C)NC(=O)[C@H](CC(C)C)NC(C)=O)C(C)C)[C@@H](C)CC)C(=O)N[C@@H](C(C)C)C(=O)N[C@@H](CC(C)C)C(=O)N[C@@H](CCCC)C(=O)N1)C(C)C)[C@@H](C)CC)C(N)=O [SP-334] (Ac-LLQGEELLRALDQVNIDE[S5]VL[Nle][S5]LVIE[Nle]-NH2; staple 19-23) | ++++ (≥30: ++++) | + (<10: +) | > 30 | 200 to 400 |
| CC[C@H](C)[C@H](NC(=O)[C@H](Cc1ccccc1)NC(C)=O)C(=O)N[C@@H](CC(=O)O)C(=O)N[C@@H](CCC(=O)O)C(=O)N[C@@]1(C)CCCC=CCCC[C@@](C)(C(=O)N[C@@H](CC(C)C)C(=O)N[C@H](C(=O)N[C@H](C(=O)N[C@@H](CCC(=O)O)C(=O)N[C@@H](CCSC)C(=O)NCC(=O)N[C@@H](CC(C)C)C(=O)N[C@@H](CC(=O)O)C(=O)N[C@@H](CCCNC(=N)N)C(=O)N[C@H](C(=O)N[C@@H](CCCCN)C(=O)N[C@@H](CCC(=O)O)C(=O)N[C@@H](CC(C)C)C(=O)N2CCC[C@H]2C(=O)N[C@@H](CCC(=O)O)C(=O)N[C@@H](CC(C)C)C(=O)N[C@@H](Cc2c[nH]c3ccccc23)C(=O)N[C@@H](CC(C)C)C(N)=O)[C@@H](C)CC)[C@@H](C)CC)C(C)C)NC(=O)[C@H](CCSC)NC(=O)[C@H](CC(C)C)NC(=O)[C@H](C(C)C)NC1=O [SP-104] (Ac-FIDE[S5]VLM[S5]LVIEMGLDRIKELPELWL-NH2; staple 5-9) | ++++ (≥30: ++++) | ++++ (≥50: ++++) | 5 to 15 | 200 to 400 |
| CC[C@H](C)[C@H](NC(=O)[C@H](Cc1ccccc1)NC(C)=O)C(=O)N[C@@H](CC(=O)O)C(=O)N[C@@H](CCC(=O)O)C(=O)N[C@@H](CCC(=O)O)C(=O)N[C@H](C(=O)N[C@@H](CC(C)C)C(=O)N[C@@H](CCSC)C(=O)N[C@@]1(C)CCCC=CCCC[C@@](C)(C(=O)N[C@@H](CCSC)C(=O)N[C@@H](C)C(=O)N[C@@H](CC(C)C)C(=O)N[C@@H](CO)C(=O)N[C@@H](CCCNC(=N)N)C(N)=O)NC(=O)[C@H]([C@@H](C)CC)NC(=O)[C@H](C(C)C)NC(=O)[C@H](CC(C)C)NC1=O)C(C)C [SP-287] (Ac-FIDEEVLM[S5]LVI[S5]MALSR-NH2; staple 9-13) | ++++ (≥30: ++++) | ++++ (≥50: ++++) | 5 to 15 | > 700 |
| CCCC[C@H](NC(=O)[C@H](CCC(=O)O)NC(=O)[C@@H](NC(=O)[C@@H](NC(=O)[C@H](CC(C)C)NC(=O)[C@]1(C)CCCC=CCCC[C@](C)(NC(=O)[C@H](CCC(=O)O)NC(=O)[C@H](CC(=O)O)NC(=O)[C@@H](NC(=O)[C@H](Cc2ccccc2)NC(C)=O)[C@@H](C)CC)C(=O)N[C@@H](C(C)C)C(=O)N[C@@H](CC(C)C)C(=O)N[C@@H](C)C(=O)N1)C(C)C)[C@@H](C)CC)C(=O)N[C@@H](C)C(=O)N[C@@H](CC(C)C)C(N)=O [SP-152] (Ac-FIDE[S5]VLA[S5]LVIE[Nle]AL-NH2; staple 5-9) | ++++ (≥30: ++++) | +++ (≤25 but <50: +++) | > 30 | 400 to 700 |
